This assay relates to diabetic patients (type 1 and type 2 diabetes mellitus). The experiment in a line: Research Plan 2: therapy of diabetes mellitus targeting bone marrow-derived abnormal hematopoietic stem cell in patients. Particulars: type 1 and type 2 diabetic patients, 12 weeks therapy. The class given is in vivo, human.

“insulin: insulin therapy alone for three months (control group) in the human research plan”: the “(A) effect of eliminating abnormal hematopoietic stem cells” value is “not eliminated”, the “(B) effect of healing diabetes mellitus” value is on record as “not observed” and the “(C) therapeutic effect on a complication” value is listed as “observed to some extent”.

The record behind these values is patent publication US20240139129A1, “NOVEL METHOD AND AGENT FOR TREATING, DIAGNOSING AND DETECTING DIABETES AND COMPLICATIONS” (Biozipcode, Inc., priority 2021, published 2024).
